The source of these data is patent US8637536B2, “Pyrimidinone compounds for use in the treatment of diseases or conditions mediated by Lp-PLA2” (Glaxo Group Limited, priority 2010, dated 2014).

Where two headings read alike, the source gives them in different places. Where only a bound is given, the exact number is not on record here.

Assay [1] has as its system proinflammatory (M1) and anti-inflammatory (M2) markers in macrophages. Put plainly: EAE model (MBP immunization), ex vivo realtime PCR analysis of M1 and M2 macrophage markers. Particulars: macrophages ex vivo (splenic, day 13 post MBP-immunization; CNS infiltrating cells), compound treated vs control. Format: in vivo, rats. On the procedure:
A further study was carried out to study the impact of Lp-PLA2 inhibitors on modulating M1/M2 imbalance. In this study, rats were induced to develop experimental autoimmune encephalomyelitis (EAE) by immunization with myelin basic protein (MBP) antigen and treated with a known Lp-PLA2 inhibitor: 549-Methoxy-4-oxo-6,7-dihydro-4H-pyrimido[6,1-a]isoquinolin-2-yl)oxy)-2-(3-(trifluoromethyl)phenoxy)benzonitrile (See PCT application no. PCT/CN2011/001597) For preventive treatment, compound administration started at day 0 whereas it started at 7 day in therapeutic treatment. Rats were subsequently monitored for symptoms of EAE. Rats were immunized with MBP to develop EAE and symptoms were monitored daily. Plasma Lp-PLA2 activity and LysoPC concentration were determined at different time points through the course of EAE.
Ex vivo analysis of proinflammatory (M1) and anti-inflammatory (M2) markers in control and compound treated EAE […]. Splenic macrophages were harvested at day 13 post MBP-immunization and assayed for expression of a variety of markers by realtime PCR. CNS infiltrating cells were harvested and macrophages were analyzed for expression of M1 and M2 markers by realtime PCR.

The target of assay [2] is T1, recombinant human Lp-PLA2 (Homo sapiens, UniProt Q13093).
T1 sequence (Q13093 22-441): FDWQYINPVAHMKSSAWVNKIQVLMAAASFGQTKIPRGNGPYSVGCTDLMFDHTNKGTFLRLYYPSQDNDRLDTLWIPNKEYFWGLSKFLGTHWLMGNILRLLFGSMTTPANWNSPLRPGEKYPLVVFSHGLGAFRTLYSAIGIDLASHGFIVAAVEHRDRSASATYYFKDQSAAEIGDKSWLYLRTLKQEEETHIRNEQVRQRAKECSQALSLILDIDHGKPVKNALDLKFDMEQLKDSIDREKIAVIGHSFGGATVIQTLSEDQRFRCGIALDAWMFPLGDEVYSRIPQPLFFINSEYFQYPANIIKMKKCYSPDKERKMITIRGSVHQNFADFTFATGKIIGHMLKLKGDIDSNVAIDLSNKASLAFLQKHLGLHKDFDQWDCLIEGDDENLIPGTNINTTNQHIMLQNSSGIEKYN
Put plainly: Recombinant human Lp-PLA2 assay (rhLp-PLA2, PED6 assay). Format: biochemical.

The target in assay [3] is T2, Lp-PLA2 from plasma (pooled human plasma) (Homo sapiens, UniProt Q13093).
T2 construct: 8 μL pooled human plasma; from tissue; host or cells: pooled human plasma
T2 sequence (Q13093 22-441): T1 sequence (Q13093 22-441)
In words: Lp-PLA2 human plasma assay (Thio-PAF assay). It is filed as biochemical. The settings on record: text thresholds, read-out: pIC50 values in the thio-PAF assay (converted). The essentials:
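Pooled human plasma preincubated 30 min with compound, then thio-PAF substrate with NEM and CPM added in pH 7.4 HEPES/NaCl/CHAPS buffer; reaction 2 min at room temperature, quenched with 5% TFA, fluorescence read at ex 380/em 485 after 40 min; pIC50 from curve fitting.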

Setting [4] is: text thresholds, upper limit for pIC50 in this assay is 9.3, read-out: pIC50 values in the PED6 assay (converted).
Setting [5] is: upper limit for pIC50 obtained in this PED6 assay is 9.3, read-out: rhLp-PLA2 (PED6 assay) (pIC50) (converted).

Take `COc1ccc2c(c1)CCn1c-2cc(Oc2ccc(Oc3cccc(C(F)(F)F)c3)c(C#N)c2)nc1=O`: in assay [1], the “M1 markers (expression by realtime PCR)” value was “decrease” and the “M2 markers (expression by realtime PCR)” value is recorded as “increase”.

For the molecule `COc1ncc(Cc2c[nH]c(NCCc3ccc(Oc4ccc(C(F)(F)F)cn4)c(C#N)c3)nc2=O)cn1` [E202, 5-{2-[5-(2-methoxy-pyrimidin-5-ylmethyl)-4-oxo-1,4-dihydro-pyrimidin-2-yl]-amino}-ethyl-2-(5-trifluoromethyl-pyridin-2-yloxy)benzonitrile], the IC50 in assay [2] (setting [4]) is not above 10 nM; in assay [2] (setting [5]), 7.94 nM; in assay [3], not above 100 nM.

In the case of `O=c1nc(NCCc2ccc(Oc3ccc(C(F)(F)F)cc3)cc2)[nH]cc1Cc1cncnc1` [E204], the IC50 was not above 10 nM in assay [2] (setting [4]) and not above 100 nM in assay [3].

As to `N#Cc1cc(CCNc2nc(=O)c(Cc3cncnc3)c[nH]2)ccc1Oc1ccc(C(F)(F)F)cn1` [E205, 5-[2-(4-oxo-5-pyrimidin-5-ylmethyl-1,4-dihydro-pyrimidin-2-ylamino)-ethyl]-2-(5-trifluoromethyl-pyridin-2-yloxy)benzonitrile], the figures for the IC50 in assay [2] (setting [4]) and in assay [3] were not above 10 nM and not above 1000 nM, respectively.

Turning to `COc1ncc(Cc2c[nH]c(NCCc3ccc(Oc4ccc(C(F)(F)F)c(Cl)c4)cc3)nc2=O)cn1` [E206, 2-{2-[4-(3-chloro-4-trifluoromethyl-phenoxy)-phenyl]ethylamino}-5-(2-methoxy-pyrimidin-5-ylmethyl)-1H-pyrimidin-4-one], the figures for the IC50 in assay [2] (setting [4]) and in assay [3] were not above 10 nM and not above 1000 nM, respectively.

For the molecule `Cc1ccc(Cc2c[nH]c(NCCc3ccc(Oc4ccc(Cl)c(C(F)(F)F)c4)cc3)nc2=O)cn1` [E210, 2-{2-[4-(4-Chloro-3-trifluoromethyl-phenoxy)-phenyl]-ethylamino}-5-(6-methyl-pyridin-3-ylmethyl)-1H-pyrimidin-4-one], the IC50 in assay [2] (setting [4]) is not above 10 nM; in assay [3] it was not above 100 nM.

Regarding `O=c1ccc(Cc2c[nH]c(NCCc3ccc(Oc4ccc(Cl)c(C(F)(F)F)c4)cc3)nc2=O)c[nH]1` [E212, 2-{2-[4-(4-Chloro-3-trifluoromethyl-phenoxy)-phenyl]-ethylamino}-5-(6-oxo-1,6-dihydro-pyridin-3-ylmethyl)-1H-pyrimidin-4-one], the IC50 in assay [2] (setting [4]) is not above 10 nM; in assay [2] (setting [5]) it was 6.31 nM; in assay [3] it was not above 100 nM.

Consider `O=c1nc(NCCc2ccc(Oc3ccc(Cl)c(C(F)(F)F)c3)cc2)[nH]cc1Cc1ccnnc1` [E214, 2-{2-[4-(4-chloro-3-trifluoromethyl-phenoxy)-phenyl]ethylamino}-5-pyridazin-4-ylmethyl-1H-pyrimidin-4-one], for which the IC50 in assay [2] (setting [4]) was not above 10 nM; in assay [3], not above 100 nM.

On to `O=c1cc(Cc2c[nH]c(NCCc3ccc(Oc4ccc(Cl)c(C(F)(F)F)c4)cc3)nc2=O)cc[nH]1` [E216, 2-{2-[4-(4-Chloro-3-trifluoromethyl-phenoxy)-phenyl]-ethylamino}-5-(2-oxo-1,2-dihydro-pyridin-4-ylmethyl)-1H-pyrimidin-4-one], for which the results for the IC50 in assay [2] (setting [4]), in assay [2] (setting [5]) and in assay [3] were not above 10 nM, 3.16 nM and not above 1000 nM, respectively.
